Measured values reported in publication PMC6835510, “Magnificamide, a β-Defensin-Like Peptide from the Mucus of the Sea Anemone Heteractis magnifica, Is a Strong Inhibitor of Mammalian α-Amylases” (Marine Drugs, 2019).
Bridge positions count the residues as written; N and C are the ends. Ends that are not written are not given here.

Columns and labels:
[1] = target: T1, porcine pancreatic α-amylase (PPA) (Sus scrofa, UniProt P00690); assay: PPA inhibitory activity of RP-HPLC fractions; format: biochemical; settings: 10 µL sample, PPA 1 µg/mL, 50 mM sodium phosphate, 100 mM NaCl, pH 7.0, 10 min RT, CNPG3 1 mM, 405 nm
T1 construct: purchased Sigma Aldrich A4268
T1 sequence (P00690 16-511): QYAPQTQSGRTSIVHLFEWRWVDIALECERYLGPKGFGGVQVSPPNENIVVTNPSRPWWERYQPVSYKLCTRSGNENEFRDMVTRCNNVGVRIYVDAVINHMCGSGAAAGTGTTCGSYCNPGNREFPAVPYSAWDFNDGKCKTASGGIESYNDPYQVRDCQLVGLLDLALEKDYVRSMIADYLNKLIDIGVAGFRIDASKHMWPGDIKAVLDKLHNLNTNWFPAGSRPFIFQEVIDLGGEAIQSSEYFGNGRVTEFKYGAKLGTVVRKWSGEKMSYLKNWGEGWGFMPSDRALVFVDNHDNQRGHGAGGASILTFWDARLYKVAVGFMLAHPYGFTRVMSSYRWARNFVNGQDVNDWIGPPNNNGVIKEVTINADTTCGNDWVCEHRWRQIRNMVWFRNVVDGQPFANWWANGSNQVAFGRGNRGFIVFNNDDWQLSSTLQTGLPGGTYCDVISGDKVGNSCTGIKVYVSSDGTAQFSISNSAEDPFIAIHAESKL
Description: The porcine α-amylase (PPA) inhibitory activity of the peptide fractions obtained by RP-HPLC was tested by the following procedure. Experimental samples (10 µL) were added to 80 µL of 50 mM sodium phosphate, 100 mM sodium chloride buffer (pH 7.0), and PPA (A4268) (1 µg/mL) (Sigma Aldrich, St. Louis, MO, USA), and incubated for 10 min at RT. The substrate solution, 2-chloro-4-nitrophenyl α-D-maltotrioside (CNPG3) (Sigma Aldrich, St. Louis, MO, USA), was added to the reaction mixture (1 mM) and incubated for 10 min at RT. The optical absorption was measured on an xMark microplate spectrophotometer (BioRad, Hercules, CA, USA) at 405 nm.

rKv1.1 = assay: Two-electrode voltage-clamp; format: cell-based, mammalian; settings: 10 µM; Xenopus laevis oocytes; 18–22 °C
Text: (§1) For the expression of Nav channels (mammalian rNav1.2, rNav1.4, hNav1.5, mNav1.6 and hNav1.8 channels; the insect channel BgNav1 from Blattella germanica; and the auxiliary subunits rβ1, hβ1, and TipE) and Kv channels (mammalian rKv1.1, rKv1.2, hKv1.3, rKv1.4, rKv1.5, rKv1.6, rKv2.1, hKv3.1, rKv4.2, hKv10.1, and hERG; and Drosophila Shaker’s IR) in Xenopus laevis oocytes; the linearized plasmids were transcribed using the T7 or SP6 mMESSAGE-mMACHINE transcription kit (Ambion, Carlsbad, CA, USA). The harvesting of stage V–VI oocytes from anesthetized female Xenopus laevis frog was previously described. Oocytes were injected with 50 nL of cRNA at a concentration of 1 ng/nL using a microinjector (Drummond Scientific, Broomall, PA, USA). The oocytes were incubated in a solution containing 96-mM NaCl, 2-mM KCl, 1.8-mM CaCl2, 2-mM MgCl2, and 5-mM HEPES (pH 7.4), supplemented with 50 mg/L gentamycin sulfate.
(§2) Two-electrode voltage-clamp recordings were performed at room temperature (18–22 °C) using a Geneclamp 500 amplifier (Molecular Devices, Downingtown, PA, USA) controlled by a pClamp data acquisition system (Axon Instruments, Union City, CA, USA). Whole cell currents from oocytes were recorded 1–4 days after injection. The bath solution’s composition was 96-mM NaCl, 2-mM KCl, 1.8-mM CaCl2, 2-mM MgCl2, and 5-mM HEPES (pH 7.4). Toxins were applied directly to the bath. Resistances of both electrodes were kept between 0.8 and 1.5 MΩ. The elicited currents were sampled at 20 kHz (Nav) or 2 kHz (Kv), filtered at 2 kHz (Nav) or 0.5 kHz (Kv) using a four-pole low-pass Bessel filter. Leak subtraction was performed using a -P/4 protocol. […] For the electrophysiological analysis, a number of protocols were applied from a holding potential of −90 mV with a start-to-start interval of 0.2 Hz. Kv1.1–Kv1.6 and Shaker currents were evoked by 250-ms depolarizations to 0 mV followed by a 250 ms pulse to −50 mV from a holding potential of −90 mV. Current traces of hERG channels were elicited by applying a +40 mV prepulse for 2 s followed by −120 mV for 2 s. Kv2.1, Kv3.1, and Kv4.2 currents were elicited by 250 ms pulses to +20 mV from a holding potential of −90 mV. Kv10.1 currents were evoked by 2-s depolarizing pulses to 0 mV from a holding potential of −90 mV. Sodium current traces were evoked by 100-ms depolarization to the voltage corresponding to maximal sodium current in control conditions. All data were analyzed using pClamp Clampfit 10.0 (Molecular Devices, Downingtown, PA, USA) and Origin 7.5 software (Originlab, Northampton, MA, USA).

hNav1.5 = assay: Two-electrode voltage-clamp; format: cell-based, mammalian; settings: 10 µM; Xenopus laevis oocytes; 18–22 °C
Text: as §1, §2

hKv3.1 = assay: Two-electrode voltage-clamp; format: cell-based, mammalian; settings: 10 µM; Xenopus laevis oocytes; 18–22 °C
Text: as §1, §2

BgNav1 = assay: Two-electrode voltage-clamp; format: cell-based, Blattella germanica; settings: 10 µM; insect channel; Xenopus laevis oocytes; 18–22 °C
Text: as §1
Two-electrode voltage-clamp recordings were performed at room temperature (18–22 °C) using a Geneclamp 500 amplifier (Molecular Devices, Downingtown, PA, USA) controlled by a pClamp data acquisition system (Axon Instruments, Union City, CA, USA). Whole cell currents from oocytes were recorded 1–4 days after injection. […] All data were analyzed using pClamp Clampfit 10.0 (Molecular Devices, Downingtown, PA, USA) and Origin 7.5 software (Originlab, Northampton, MA, USA).

SEGTSCYIYHGVYGICKAKCAEDMKAMAGMGVCEGDLCCYKTPW (disulfide 6-38, 16-33, 20-39) [r-magnificamide]
PPA inhibition by RP-HPLC fraction [1]: inhibited PPA | Channel modulating activity, Kv1.1 (rKv1.1): Not active | Channel modulating activity, Nav1.5 (hNav1.5): Not active | Channel modulating activity, Kv3.1 (hKv3.1): Not active | Channel modulating activity, BgNav1 (BgNav1): Not active
